# Data reported in US10005733B2, “N-(4-hydroxy-4-methyl-cyclohexyl)-4-phenyl-benzenesulfonamide and N-(4-hydroxy-4-methyl-cyclohexyl)-4-(2-pyridyl)-benzenesulfonamide compounds and their therapeutic use” (PIMCO 2664 LIMITED, priority 2014, dated 2018).
# pIC50: −log10 of the molar value.
# Tests used:
# [1] = molecular target: T1, CYP2C9 (Homo sapiens, UniProt P11712); assay: Human Cytochrome P450 Inhibition Assay (Bactosomes), CYP2C9; format: in vitro ADME; conditions: recombinant Bactosomes, probe substrate, 10 minutes at 37° C.
# T1 construct: purchased Cypex Ltd, Dundee, Scotland UK
# Experimental: (§1) The ability of test compounds to inhibit five of the most relevant cytochrome P450 enzymes was measured by determination of the activity of cytochrome P450 enzymes in recombinant cytochrome preparations, called Bactosomes (Cypex Ltd, Dundee, Scotland UK DD2 1NH), in the presence of a specific probe substrate. Bactosomes are a highly efficient and cost-effective source of recombinant CYP450s which have a higher specific activity of enzyme compared to other sources, such as liver microsomes. […] The following CYP450 isoforms were assayed: CYP1A2, CYP2C9, CYP2C19, CYP2D6 and CYP3A4. The study of CYP450 inhibition potential in Bactosomes is accepted as a valuable model permitting rapid prediction of potential drug-drug interactions in vivo (see, e.g., Weaver et al., 2003).
# (§2) Bactosomes were obtained from a commercial source (Cypex, Scotland, UK). Test compounds were incubated with Bactosomes at 6 concentrations. Samples were incubated for 10 minutes, after which the reaction was stopped and the samples analysed by LC-MS/MS Multiple Reaction Monitoring (MRM) for the presence/amount of substrate probe.
# (§3) CYP450 enzymes (final protein 75 pmol/mL for CYP1A2; 12.5 pmol/mL for CYP2C19; and 25 pmol/mL for CYP2C9, 2D6 and 3A4), 0.1 M phosphate buffer pH 7.4, probe and test compound (final concentration 50, 15.8, 5, 1.58, 0.5 and 0.158 μM; diluted from 10 mM stock solution to give a final DMSO concentration of 1%) were pre-incubated at 37° C. for 5 minutes. The reaction was initiated by the addition of 20 μL of 10 mM NADPH in phosphate buffer. The final incubation volume was 200 μL. The following control inhibitors were used for each CYP450 inhibition assay: CYP1A2: α-naphthoflavone; CYP2C9: sulfaphenazole; CYP2C19: tranylcypromine; CYP2D6: quinidine; CYP3A4: ketoconazole.
# (§4) Each compound was incubated for 10 minutes at 37° C. The reactions were stopped by the addition of methanol (final composition 1:1, aqueous: methanol). The incubation plates were shaken, chilled at […] for 2 hours, and centrifuged at 3500 rpm for 15 minutes at 4° C. to precipitate the protein.
# (§5) IC50 values were determined by linear transformation within Microsoft Excel.
# [2] = molecular target: T2, CYP2C19 (Homo sapiens, UniProt P33261); assay: Human Cytochrome P450 Inhibition Assay (Bactosomes), CYP2C19; format: in vitro ADME; conditions: recombinant Bactosomes, probe substrate, 10 minutes at 37° C.
# T2 construct: purchased Cypex Ltd, Dundee, Scotland UK
# Experimental: as §1, §2, §3, §4, §5
# [3] = test system: J774 macrophages; assay: Resazurin Macrophage J774 Viability Assay; format: cell-based; conditions: Mus musculus
# Experimental: Potency was assessed using a viability assay based on the survival of the J774 macrophage cell line. Macrophages are closely related to osteoclasts and have been used previously as a model system for osteoclast survival (see, e.g., Luckman et al., 1998, “Heterocycle-containing bisphosphonates cause apoptosis and inhibit bone resorption by preventing protein prenylation: evidence from structure-activity relationships in J774 macrophages,” J. Bone Miner. Res., Vol. 13, pp. 1668-1678). The model is indicative both of effects on bone protection in diseases such as osteoporosis, osteoarthritis and rheumatoid arthritis, and of effects on inflammation since, like osteoclasts, J774 macrophages are dependent for survival on continued NFκB activation.
# In vitro potency of test compounds was determined by incubation with J774 macrophages and subsequent determination of cell viability using resazurin.
# Resazurin is a redox dye commonly used as an indicator of viability in cultured cells (see, e.g., Anoopkumar-Dukie, 2005, “Resazurin assay of radiation response in cultured cells”, British Journal of Radiology, Vol. 78, pp. 945-947). It is non-toxic to cells and stable in culture medium, allowing continuous measurement of cell proliferation in vitro as either a kinetic or endpoint assay. The assay is based on the ability of viable, metabolically-active cells to reduce resazurin (which is blue and non-fluorescent) to resorufin and dihydroresorufin (which are red and fluorescent) using electrons from reducing species, such as nicotinamide […] and flavin adenine dinucleotide (FADH). This transformation, from oxidised form to reduced form, can be measured either colorimetrically or fluorometrically. Insults that impair cell viability and proliferation also affects the capacity of cells to reduce resazurin, and the rate of dye reduction is directly proportional to the number of viable cells present.
# For fluorescence measurements, 530-560 nm excitation and 590 nm emission wavelengths are typically used. For colorimetric measurements, absorbance at 570 nm (reduced form) and 600 nm (oxidised form) is typically measured. A simple calculation is performed to determine the relative quantities of the two species: a high ratio of resorufin (the reduced form) to resazurin (the oxidised form) is an indicator that cells are proliferating and viable. A low ratio indicates cells that are quiescent or non-viable.
# J774 cells were plated at 10^4 cells per well in 100 μL αMEM (α Modified Eagle Medium) in 96-well plates and allowed to adhere overnight. The following day, test compounds were prepared as 100 mM solutions in DMSO. These stock solutions were diluted in DMSO and then diluted 1000× in culture medium (αMEM) before being added directly to the wells so as to give the desired final compound concentration. After a 72 hour incubation at 37° C./5% CO2, resazurin (Alamar Blue, Biosource International) was added to each well (1:10 v/v, 10 μL). The plate was then incubated at 37° C. for 3 hours and fluorescence was measured at 590 nm, with a 25 nm bandwidth.
# The average results for each test compound were expressed as a percent (%) of the average control value reflecting cell viability. The average values across the concentrations tested were then plotted and an IC50 was calculated by fitting the data to a 4-parameter IC50 equation using either Graph Pad Prism software for Windows (Graph Pad Software, San Diego Calif. USA) or Grafit version 5 (Erithacus Software). Each experiment was repeated twice and the data are presented as the mean IC50 from both experiments.
# [4] = molecular target: T3, CYP2D6 (Homo sapiens, UniProt P10635); assay: Human Cytochrome P450 Inhibition Assay (Bactosomes), CYP2D6; format: in vitro ADME; conditions: recombinant Bactosomes, probe substrate, 10 minutes at 37° C.
# T3 construct: purchased Cypex Ltd, Dundee, Scotland UK
# Experimental: as §1, §2, §3, §4, §5
# [5] = J774, footnote (2): 12 point range 10 μM to 0.5 nM, n = 4 per concentration, GraphPad Prism, average of original and new experiments where replicates increased
# [6] = J774, 72 h, footnote (1): 10 point range 30 μM to 1.5 nM, n = 3 per concentration, Grafit, 72 hour incubation
# T3 sequence (P10635 whole entry): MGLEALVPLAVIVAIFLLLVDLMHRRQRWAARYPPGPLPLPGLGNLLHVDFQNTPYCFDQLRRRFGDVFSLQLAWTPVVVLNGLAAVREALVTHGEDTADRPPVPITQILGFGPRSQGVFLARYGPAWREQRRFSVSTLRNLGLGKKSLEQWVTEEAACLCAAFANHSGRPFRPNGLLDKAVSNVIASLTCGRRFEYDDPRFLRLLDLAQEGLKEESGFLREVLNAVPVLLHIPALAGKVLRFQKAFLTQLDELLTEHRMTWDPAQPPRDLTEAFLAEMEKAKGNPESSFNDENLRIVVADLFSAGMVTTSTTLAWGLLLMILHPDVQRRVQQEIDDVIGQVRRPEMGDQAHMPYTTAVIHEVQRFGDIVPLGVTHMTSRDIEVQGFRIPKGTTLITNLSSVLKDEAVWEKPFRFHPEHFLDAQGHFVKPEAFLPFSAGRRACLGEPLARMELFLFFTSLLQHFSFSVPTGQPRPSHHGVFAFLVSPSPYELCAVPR
# T1 sequence (P11712 whole entry): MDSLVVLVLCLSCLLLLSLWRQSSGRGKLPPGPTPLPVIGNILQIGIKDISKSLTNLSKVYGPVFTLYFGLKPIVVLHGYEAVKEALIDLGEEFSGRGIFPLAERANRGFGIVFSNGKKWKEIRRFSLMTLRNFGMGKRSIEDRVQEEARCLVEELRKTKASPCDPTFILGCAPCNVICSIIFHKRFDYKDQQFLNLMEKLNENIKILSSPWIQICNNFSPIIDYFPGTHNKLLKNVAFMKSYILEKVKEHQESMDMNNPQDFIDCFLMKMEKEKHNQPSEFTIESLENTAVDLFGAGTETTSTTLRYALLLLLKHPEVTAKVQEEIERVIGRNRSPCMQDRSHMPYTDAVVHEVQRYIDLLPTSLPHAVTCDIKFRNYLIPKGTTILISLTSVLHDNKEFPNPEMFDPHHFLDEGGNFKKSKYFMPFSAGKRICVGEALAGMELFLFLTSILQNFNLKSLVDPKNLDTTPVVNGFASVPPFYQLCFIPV
# T2 sequence (P33261 whole entry): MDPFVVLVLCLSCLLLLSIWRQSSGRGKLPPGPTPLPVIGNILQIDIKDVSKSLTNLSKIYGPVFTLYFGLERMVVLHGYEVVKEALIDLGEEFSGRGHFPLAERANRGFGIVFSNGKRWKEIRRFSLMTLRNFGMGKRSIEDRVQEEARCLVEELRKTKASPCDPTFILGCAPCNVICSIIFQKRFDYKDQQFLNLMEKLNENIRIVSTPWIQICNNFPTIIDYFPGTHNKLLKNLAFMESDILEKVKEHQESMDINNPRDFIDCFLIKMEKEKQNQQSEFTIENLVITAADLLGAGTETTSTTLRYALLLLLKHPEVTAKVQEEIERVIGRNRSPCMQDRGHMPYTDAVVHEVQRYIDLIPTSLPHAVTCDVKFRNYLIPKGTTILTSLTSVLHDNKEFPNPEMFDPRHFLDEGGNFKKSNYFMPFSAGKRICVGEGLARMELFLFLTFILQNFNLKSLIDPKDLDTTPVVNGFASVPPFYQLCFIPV
SMILES,IC50 [1] [µM],IC50 [2] [µM],IC50 [4] [µM],"pIC50 [3, 5]","pIC50 [3, 6]","pIC50 ([3]; J774, first column (original replicates, n = 2), footnote (2): 12 point range 10 μM to 0.5 nM, GraphPad Prism)"
"C[C@]1(O)CC[C@@H](NS(=O)(=O)c2ccc(-c3ccc(F)cc3F)cc2)CC1 [ABD899, reference compound]",3.9,7.3,45.3,6.68,6.57,–
"Cc1cc(S(=O)(=O)N[C@H]2CC[C@H](O)CC2)ccc1-c1ccc(F)cc1F [ABD735, reference compound]",25,> 25,> 25,6.96,7.15,–
"C[C@]1(O)CC[C@@H](NS(=O)(=O)c2ccc(-c3ccc(C#N)cc3)c(F)c2)CC1 [HMC-C-07-B, 4′-Cyano-2-fluoro-N-((1s,4s)-4-hydroxy-4-methylcyclohexyl)-[1,1′-biphenyl]-4-sulfonamide]",> 50,> 50,> 50,7.02,–,7.05
"O=S(=O)(N[C@H]1CC[C@H](O)CC1)c1ccc(-c2ccc(F)cc2F)cc1 [ABD599, reference compound]",9.5,> 25,20.7,–,6.39,–
C[C@]1(O)CC[C@H](NS(=O)(=O)c2ccc(-c3ccc(F)cc3F)cc2)CC1 [ABD900],–,–,–,5.54,5.44,–

# Continued, in another order:
IC50 [1] [µM],IC50 [2] [µM],IC50 [4] [µM],SMILES,"pIC50 [3, 5]","pIC50 [3, 6]","pIC50 ([3]; J774, first column (original replicates, n = 2), footnote (2): 12 point range 10 μM to 0.5 nM, GraphPad Prism)"
27,> 50,> 50,"C[C@]1(O)CC[C@H](NS(=O)(=O)c2ccc(-c3ncc(Cl)cc3C#N)cc2)CC1 [HMC-N-05-A, 4-(5-Chloro-3-cyanopyridin-2-yl)-N-((1r,4r)-4-hydroxy-4-methylcyclohexyl)benzenesulfonamide]",5.74,–,–
2.7,5.1,9.3,"C[C@]1(O)CC[C@H](NS(=O)(=O)c2ccc(-c3ccc(Cl)cc3C#N)c(Cl)c2)CC1 [HMC-C-11-A, 2,4′-Dichloro-2′-cyano-N-((1r,4r)-4-hydroxy-4-methylcyclohexyl)-[1,1′-biphenyl]-4-sulfonamide]",5.84,–,–
2.4,8.5,> 16,"C[C@]1(O)CC[C@@H](NS(=O)(=O)c2ccc(-c3cc(F)c(F)cc3F)cc2)CC1 [HMC-C-10-B, 2′,4′,5′-Trifluoro-N-((1s,4s)-4-hydroxy-4-methylcyclohexyl)-[1,1′-biphenyl]-4-sulfonamide]",6.27,–,–
6.7,30,19,"C[C@]1(O)CC[C@H](NS(=O)(=O)c2ccc(-c3ccc(Cl)cc3C#N)c(F)c2)CC1 [HMC-C-08-A, 4′-Chloro-2′-cyano-2-fluoro-N-((1r,4r)-4-hydroxy-4-methylcyclohexyl)-[1,1′-biphenyl]-4-sulfonamide]",5.90,–,–
> 50,> 50,> 50,"C[C@]1(O)CC[C@H](NS(=O)(=O)c2ccc(-c3ccc(C#N)cc3)c(F)c2)CC1 [HMC-C-07-A, 4′-Cyano-2-fluoro-N-((1r,4r)-4-hydroxy-4-methylcyclohexyl)-[1,1′-biphenyl]-4-sulfonamide]",5.78,–,–
34,> 50,> 50,"C[C@]1(O)CC[C@H](NS(=O)(=O)c2ccc(-c3ccc(C#N)cc3Cl)cc2)CC1 [HMC-C-09-A, 2′-Chloro-4′-cyano-N-((1r,4r)-4-hydroxy-4-methylcyclohexyl)-[1,1′-biphenyl]-4-sulfonamide]",6.16,–,–
